In patent publication US6486185B1, “3-heteroarylidene-2-indolinone protein kinase inhibitors” (Sugen, Inc., priority 1997, dated 2002):

Tests used:
[1] = biological target: T1, EGFR (Homo sapiens, UniProt P00533); assay: EGF receptor ELISA in cells engineered to express human EGF-R; type: cell-based; details: 50% inhibition of PTK activity over control
T1 construct: expressed in transfected cells; host or cells: NIH 3T3/C7
Method: (§1) The cellular/catalytic assays described herein are performed in an ELISA format. The general procedure is a follows: a compound is introduced to cells expressing the test kinase, either naturally or recombinantly, for some period of time after which, if the test kinase is a receptor, a ligand known to activate the receptor's activity is added. The cells are lysed and the lysate is transferred to the wells of an ELISA plate previously coated with a specific antibody recognizing the substrate of the enzymatic phosphorylation reaction. Non-substrate components of the cell lysate are washed away and the amount of phosphorylation on the substrate is detected with an antibody specifically recognizing phosphotyrosine compared with control cells that were not contacted with a test compound.
EGF Receptor kinase activity in cells genetically engineered to express human EGF-R can be measured as described below:
The following materials and reagents are used
a. EGF Ligand: stock concentration=16.5 μM; EGF 201, TOYOBO, Co., Ltd. Japan.
b. 05-101 (UBI) (a monoclonal antibody recognizing an EGFR extracellular domain).
c. Anti-phosphotyosine antibody (anti-Ptyr) (polyclonal).
d. Detection antibody: Goat anti-rabbit lgG horse radish peroxidase conjugate, TAGO, Inc., Burlingame, Calif.
Keep solution in dark at 4 C until used.
The following protocol is used:
1. Coat ELISA plates (Corning, 96 well, Cat. #25805-96) with 05-101 antibody at 0.5 μg per well in PBS, 150 μL final volume/well, and store overnight at 4° C. Coated plates are good for up to 10 days when stored at 4° C.
2. On day of use, remove coating buffer and replace with blocking buffer (5% Carnation Instant NonFat Dry Milk in PBS). Incubate the plate, shaking, at room temperature (about 23° C. to 25° C.) for 30 minutes. Just prior to use, remove blocking buffer and wash plate 4 times with TBST buffer.
1. NIH 3T3/C7 cell line (Honegger, et al., Cell 51:199-209, 1987) can be use for this assay.
2. Choose dishes having 80-90% confluence for the experiment. Trypsinize cells and stop reaction by adding 10% CS DMEM medium. Suspend cells in DMEM medium (10% CS DMEM medium) and centrifuge once at 1000 rpm at room temperature for 5 minutes.
3. Resuspend cells in seeding medium (DMEM, 0.5% bovine serum), and count the cells using trypan blue. Viability above 90% is acceptable. Seed cells in DMEM medium (0.5% bovine serum) at a density of 10,000 cells per well, 100 μL per well, in a 96 well microtiter plate. Incubate seeded cells in 5% CO2 at 37° C. for about 40 hours.
1. Check seeded cells for contamination using an inverted microscope. Dilute drug stock (10 mg/mL in DMSO) 1:10 in DMEM medium, then transfer 5 μL to a test well for a final drug dilution of 1:200 and a final DMSO concentration of 1%. Control wells receive DMSO alone. Incubate in 5% CO2 at 37° C. for one hour.
2. Prepare EGF ligand: dilute stock EGF in DMEM so that upon transfer of 10 μL dilute EGF (1:12 dilution), 25 nM final concentration is attained.
3. Prepare fresh 10 mL HNTG* sufficient for 100 μL per well wherein HNTG* comprises: HNTG stock (2.0 mL), milli-Q H2O (7.3 mL), EDTA, 100 mM, pH 7.0 (0.5 mL), Na3VO4 0.5 M (0.1 mL) and Na4(P2O7), 0.2 M (0.1 mL).
5. After two hours incubation with drug, add prepared EGF ligand to cells, 10 μL per well, to yield a final concentration of 25 nM. Control wells receive DMEM alone. Incubate, shaking, at room temperature, for 5 minutes.
6. Remove drug, EGF, and DMEM. Wash cells twice with PBS. Transfer HNTG* to cells, 100 μL per well. Place on ice for 5 minutes. Meanwhile, remove blocking buffer from other ELISA plate and wash with TBST as described above.
7. With a pipette tip securely fitted to a micropipettor, scrape cells from plate and homogenize cell material by repeatedly aspirating and dispensing the HNTG* lysis buffer. Transfer lysate to a coated, blocked, and washed ELISA plate. Incubate shaking at room temperature for one hour.
8. Remove lysate and wash 4 times with TBST. […]

[2] = biological target: T2, IGF-1R (Homo sapiens, UniProt P08069); assay: IGF-I receptor ELISA in 3T3/IGF-1R cells; type: cell-based; details: 50% inhibition of PTK activity over control
T2 construct: expressed in transfected cells; host or cells: NIH3T3 (3T3/IGF-1R)
Method: as §1
The following protocol may be used to measure phosphotyrosine level on IGF-I receptor, which indicates IGF-I receptor tyrosine kinase activity.
The following materials and reagents are used:
a. The cell line used in this assay is 3T3/IGF-1R, a cell line genetically engineered to overexpresses IGF-1 receptor.
b. NIH3T3/IGF-1R is grown in an incubator with 5% CO2 at 37° C. The growth media is DMEM+10% FBS (heat inactivated)+2 mM L-glutamine.
c. Affinity purified anti-IGF-1R antibody 17-69.
e. Blocking Buffer: TBST plus 5% Milk (Carnation Instant Non-Fat Dry Milk).
Stock solution of TBS (10×) is prepared, and Triton X-100 is added to the buffer during dilution.
Stock solution (5×) is prepared and kept at 4° C.
h. EDTA/HCl: 0.5 M pH 7.0 (NaOH) as 100×stock.
i. Na3VO4: 0.5 M as 100×stock and aliquots are kept in −80° C.
k. Insulin-like growth factor-1 from Promega (Cat# G5111).
l. Rabbit polyclonal anti-phosphotyrosine antiserum.
m. Goat anti-rabbit IgG, POD conjugate (detection antibody), Tago (Cat. No. 4520, Lot No. 1802): Tago, Inc., Burlingame, Calif.
n. ABTS (2,2′-azinobis(3-ethylbenzthiazolinesulfonic acid)) solution:
ABTS solution should be kept in dark and 4° C. The solution should be discarded when it turns green.
o. Hydrogen Peroxide: 30% solution is kept in the dark and at 4° C.
All the following steps are conducted at room temperature unless it is specifically indicated. All ELISA plate washings are performed by rinsing the plate with tap water three times, followed by one TBST rinse. Pat plate dry with paper towels.
1. The cells, grown in tissue culture dish (Corning 25020-100) to 80-90% confluence, are harvested with Trypsin-EDTA (0.25%, 0.5 mL/D-100, GIBCO).
2. Resuspend the cells in fresh DMEM+10% FBS+2 mM L-Glutamine, and transfer to 96-well tissue culture plate (Corning, 25806-96) at 20,000 cells/well (100 μL/well). Incubate for 1 day then replace medium to serum-free medium (90/μL) and incubate in 5% CO2 and 37° C. overnight.
B. ELISA Plate Coating and Blocking:
1. Coat the ELISA plate (Corning 25805-96) with Anti-IGF-1R Antibody at 0.5 μg/well in 100 μL PBS at least 2 hours.
2. Remove the coating solution, and replace with 100 μL Blocking Buffer, and shake for 30 minutes. Remove the blocking buffer and wash the plate just before adding lysate.
1. The drugs are tested in serum-free condition.
2. Dilute drug stock (in 100% DMSO) 1:10 with DMEM in 96-well poly-propylene plate, and transfer 10 μL/well of this solution to the cells to achieve final drug dilution 1:100, and final DMSO concentration of 1.0%. Incubate the cells in 5% CO2 at 37° C. for 2 hours.
3. Prepare fresh cell lysis buffer (HNTG*)
4. After drug incubation for two hours, transfer 10 μL/well of 200 nM IGF-1 Ligand in PBS to the cells (Final Conc.=20 nM), and incubate at 5% CO2 at 37° C. for 10 minutes.
5. Remove media and add 100 μL/well HNTG* and shake for 10 minutes. Look at cells under microscope to see if they are adequately lysed.
6. Use a 12-channel pipette to scrape the cells from the plate, and homogenize the lysate.by repeated aspiration and dispensing. Transfer all the lysate to the antibody coated ELISA plate, and shake for 1 hour.
7. […]

T2 sequence (P08069 31-1367, species assumed): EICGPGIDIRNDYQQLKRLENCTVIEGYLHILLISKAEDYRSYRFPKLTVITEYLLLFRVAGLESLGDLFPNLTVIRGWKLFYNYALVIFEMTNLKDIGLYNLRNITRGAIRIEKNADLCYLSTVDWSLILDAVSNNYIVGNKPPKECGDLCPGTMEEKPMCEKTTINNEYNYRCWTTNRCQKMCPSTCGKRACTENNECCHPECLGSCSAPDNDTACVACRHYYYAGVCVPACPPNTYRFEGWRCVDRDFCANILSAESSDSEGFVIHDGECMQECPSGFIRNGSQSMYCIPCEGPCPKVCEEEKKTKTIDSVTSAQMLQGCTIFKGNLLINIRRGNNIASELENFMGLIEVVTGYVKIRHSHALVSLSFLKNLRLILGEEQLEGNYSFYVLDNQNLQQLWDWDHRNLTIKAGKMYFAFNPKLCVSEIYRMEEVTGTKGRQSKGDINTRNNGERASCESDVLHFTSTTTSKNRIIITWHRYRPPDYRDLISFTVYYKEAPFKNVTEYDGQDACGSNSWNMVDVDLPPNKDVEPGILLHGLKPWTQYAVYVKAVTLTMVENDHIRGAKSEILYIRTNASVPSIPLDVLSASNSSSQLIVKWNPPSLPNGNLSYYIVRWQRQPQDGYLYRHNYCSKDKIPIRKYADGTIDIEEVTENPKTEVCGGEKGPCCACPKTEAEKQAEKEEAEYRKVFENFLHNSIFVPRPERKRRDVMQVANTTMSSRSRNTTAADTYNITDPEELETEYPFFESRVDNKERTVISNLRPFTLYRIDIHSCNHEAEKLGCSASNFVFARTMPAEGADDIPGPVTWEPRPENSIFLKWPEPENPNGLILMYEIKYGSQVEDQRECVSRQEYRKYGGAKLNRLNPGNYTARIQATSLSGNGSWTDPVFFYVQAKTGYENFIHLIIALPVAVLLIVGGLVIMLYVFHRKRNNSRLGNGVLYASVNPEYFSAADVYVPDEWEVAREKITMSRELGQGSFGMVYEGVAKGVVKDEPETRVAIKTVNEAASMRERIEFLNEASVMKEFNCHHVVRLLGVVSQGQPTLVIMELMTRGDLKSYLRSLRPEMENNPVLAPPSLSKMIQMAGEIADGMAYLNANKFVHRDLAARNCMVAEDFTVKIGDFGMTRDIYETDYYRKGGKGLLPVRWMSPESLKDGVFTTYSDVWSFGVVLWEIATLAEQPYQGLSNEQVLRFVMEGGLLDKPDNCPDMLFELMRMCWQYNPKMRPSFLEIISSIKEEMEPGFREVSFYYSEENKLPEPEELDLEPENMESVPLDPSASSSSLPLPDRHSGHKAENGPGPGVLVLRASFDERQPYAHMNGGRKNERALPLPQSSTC
T1 sequence (P00533 25-1210): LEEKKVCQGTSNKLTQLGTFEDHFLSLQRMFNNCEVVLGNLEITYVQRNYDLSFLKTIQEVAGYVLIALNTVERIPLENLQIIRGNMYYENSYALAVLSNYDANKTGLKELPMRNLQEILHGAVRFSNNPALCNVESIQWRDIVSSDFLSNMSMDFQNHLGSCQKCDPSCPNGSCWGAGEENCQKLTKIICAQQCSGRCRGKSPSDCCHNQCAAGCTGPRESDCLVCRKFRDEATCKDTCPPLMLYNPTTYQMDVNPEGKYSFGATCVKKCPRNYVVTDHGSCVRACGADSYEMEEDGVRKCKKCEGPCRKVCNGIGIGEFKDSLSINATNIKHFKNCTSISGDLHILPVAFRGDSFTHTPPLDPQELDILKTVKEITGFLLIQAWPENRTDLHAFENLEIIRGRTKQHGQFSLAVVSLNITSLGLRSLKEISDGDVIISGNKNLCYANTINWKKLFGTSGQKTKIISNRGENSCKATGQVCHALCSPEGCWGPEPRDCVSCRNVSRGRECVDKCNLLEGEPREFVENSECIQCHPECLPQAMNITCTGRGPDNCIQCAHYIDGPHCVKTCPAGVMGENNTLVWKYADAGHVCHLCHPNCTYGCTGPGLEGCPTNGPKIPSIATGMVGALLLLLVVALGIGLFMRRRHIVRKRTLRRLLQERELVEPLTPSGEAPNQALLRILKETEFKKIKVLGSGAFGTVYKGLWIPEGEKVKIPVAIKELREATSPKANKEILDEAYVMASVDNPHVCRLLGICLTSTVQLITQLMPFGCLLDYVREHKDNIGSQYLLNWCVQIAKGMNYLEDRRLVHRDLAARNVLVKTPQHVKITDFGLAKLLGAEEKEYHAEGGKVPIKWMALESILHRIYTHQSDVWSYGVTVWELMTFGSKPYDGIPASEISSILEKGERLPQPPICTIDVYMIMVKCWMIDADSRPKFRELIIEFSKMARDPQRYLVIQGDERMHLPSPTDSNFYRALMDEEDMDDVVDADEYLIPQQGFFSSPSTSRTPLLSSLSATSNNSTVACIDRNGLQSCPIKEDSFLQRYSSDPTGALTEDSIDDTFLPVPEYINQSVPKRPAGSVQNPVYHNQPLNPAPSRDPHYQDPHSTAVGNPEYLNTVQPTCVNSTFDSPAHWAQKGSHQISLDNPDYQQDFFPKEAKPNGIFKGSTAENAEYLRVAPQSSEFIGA

Compound	IC50 [1] [µM]	IC50 [2] [µM]
CCOC(=O)c1c(C)[nH]c(C=C2C(=O)Nc3ccccc32)c1C [3-(2,4-dimethyl-3-ethoxycarbonylpyrrol-5-methylidenyl)-2-indolinone]	> 100	> 100
CCc1c(C=C2C(=O)Nc3ccccc32)[nH]c(C(=O)O)c1C [3-(2-carboxy-4-ethyl-3-methylpyrrol-5-methylidenyl)-2-indolinone]	> 100	> 100
